Assay [1] addresses T1, CXCR2 (Homo sapiens, UniProt P25025).
T1 construct: Promega pNLF1-C (Nluc) #CXCR20TN00; host or cells: HEK293T, transient transfection (PEI)
T1 sequence (P25025 1-360): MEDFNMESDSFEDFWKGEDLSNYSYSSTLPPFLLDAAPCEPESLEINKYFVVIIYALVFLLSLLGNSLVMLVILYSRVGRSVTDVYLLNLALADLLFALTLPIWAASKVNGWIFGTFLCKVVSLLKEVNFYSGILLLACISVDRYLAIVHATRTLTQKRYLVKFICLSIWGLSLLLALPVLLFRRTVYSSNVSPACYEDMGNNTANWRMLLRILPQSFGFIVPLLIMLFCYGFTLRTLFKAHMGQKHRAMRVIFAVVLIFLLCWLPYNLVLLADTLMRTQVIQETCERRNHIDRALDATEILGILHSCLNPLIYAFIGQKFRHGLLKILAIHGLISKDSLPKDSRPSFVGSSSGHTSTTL
As to conditions: cited from earlier work.

Assay [2] concerns the target T1, CXCR2. Nature of the assay: Membrane-based NanoBRET competition assay with 9a. Format: binding. To be noted: for % comp. @ 70 μM: competitor 70 μM, 9a (50 nM). As for the experimental part:
Then, 20 μL of the membrane preparation (diluted in assay buffer, 2 μg total protein/well) was added and the plates were incubated for 90 min at 37 °C. Subsequently, 5 μL of a furimazine solution (final assay dilution: 1:5000 in the assay buffer) was added to each well (final assay volume: 35 μL). […] To determine the inhibition constants (Ki) of the nonlabeled ligands, data were analyzed using the one-site-fit Ki equation in PRISM9.5 (GraphPad).

Assay [3] addresses T2, CXCR1 (Homo sapiens, UniProt P25024).
T2 construct: host or cells: HEK293T, transient; membrane preparation
T2 sequence (P25024 1-350): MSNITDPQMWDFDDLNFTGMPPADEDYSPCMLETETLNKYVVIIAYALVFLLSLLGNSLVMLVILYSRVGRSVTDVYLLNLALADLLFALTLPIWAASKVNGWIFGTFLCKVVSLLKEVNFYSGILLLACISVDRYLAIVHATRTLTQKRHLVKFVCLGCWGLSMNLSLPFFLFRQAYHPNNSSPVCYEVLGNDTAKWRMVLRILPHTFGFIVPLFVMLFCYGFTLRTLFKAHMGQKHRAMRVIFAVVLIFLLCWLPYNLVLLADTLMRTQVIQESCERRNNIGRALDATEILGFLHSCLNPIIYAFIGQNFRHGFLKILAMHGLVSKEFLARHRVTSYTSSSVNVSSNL
Nature of the assay: Membrane-based NanoBRET saturation assay, selectivity (CXCR1_Nluc membranes). The format is binding. To be noted: cell-free, CXCR1_Nluc membranes. As for the experimental part:
(§1) For the establishment of our NanoBRET binding assay, we referred to a recently published protocol.[45] The fluorescent ligands (9a–c) were dissolved in DMSO (1 mM) and further diluted to varying concentrations in an assay buffer (50 mM Na2HPO4, 50 mM KH2PO4, pH 7.4, 1 mg/mL saponin, 5% FBS) and 5 μL of these dilutions were pipetted to a 384-well plate. To determine the total binding, 5 μL of the assay buffer was added to the corresponding wells, while 5 μL of a solution of 3 in the assay buffer (final assay concentration: 1 μM) was used to determine nonspecific binding. Then, 20 μL of the membrane preparations diluted in the assay buffer (2 μg total protein/well) were added and the plates were incubated for 90 min at 37 °C. Subsequently, 5 μL of a furimazine solution (Promega, Mannheim, Germany, final assay dilution: 1:5000) was added to each well (final assay volume: 35 μL) before measuring luminescence with a CLARIOstar microplate reader using 620/10 and 475/30 nm emission filters after 5 min of incubation in the dark. Bioluminescence resonance energy transfer (BRET) was determined as the ratio of acceptor fluorescence and donor luminescence. The algorithms for one-site saturation binding from PRISM9.5 (GraphPad) were utilized to analyze total, nonspecific, and specific binding. Specific binding signals were calculated as a difference of total and nonspecific binding. If required, netBRET values were calculated as the difference between total BRET values and the values obtained in the absence of a fluorescent ligand. For selectivity studies with CCR2, CCR7, CCR9, and CXCR1, we modified the procedure described above.

Assay [4] addresses T1, CXCR2. Nature of the assay: Membrane-based NanoBRET saturation assay (CXCR2_Nluc membranes). The format is binding. As to conditions: cell-free. As to the method: Membranes from HEK293T cells transiently expressing the respective GPCR were prepared as follows. The medium of the transfected cells was refreshed after 24 h before cells were harvested 48 h post-transfection. The growth medium was removed, and the cells were carefully washed with cold phosphate-buffered saline (10 mL per Ø 15 cm dish). The cells were detached with 15 mL of ice-cold Tris-EDTA buffer (10 mM Tris, 0.5 mM EDTA, 5.4 mM KCl, 140 mM NaCl, pH 7.4) and subsequently centrifuged with 218g for 8 min. The supernatant was removed and the cells were resuspended in 10 mL of Tris-EDTA buffer. The cells were lysed with an Ultraturrax (20,000 rpm) used five times for 5 s with a 25 s break on ice in between. The lysate was centrifuged at 50,830g for 18 min at 4 °C. The supernatant was discarded, and the pellet was homogenized in a membrane buffer (50 mM Tris, 1 mM EDTA, 5 mM MgCl2, 100 μg/mL bacitracin, 5 μg/mL soybean trypsin inhibitor, pH 7.4) with a glass-teflon homogenizer. Aliquots of 250 μL were shock-frozen in liquid nitrogen and directly stored at −80 °C. Finally, the protein concentration was determined using the Lowry method.[43]
as §1

For assay [5], the target named is T1, CXCR2. Nature of the assay: Fluorescence microscopy, displacement of 9a in HEK293 cells stably expressing CXCR2. The format is cell-based. To be noted: 9a 500 nM. As for the experimental part:
For live cell microscopy, HEK293 cells stably expressing CXCR2 were seeded onto poly-D-lysine (PDL)-coated 8-well μ-slides (Ibidi) at a density of 1.5 × 10^5 cells per well and cultured overnight at 37 °C and 5% CO2. […] Afterward, the fluorescent CXCR2 ligand ((9a) final concentration 500 nM) was added for 60 min at 37 °C, and the cells were washed once with PBS before imaging. For immunostaining, the cells were first fixed with 4% paraformaldehyde solution, washed with PBS, and then blocked for 1 h with 10% goat serum and 1% fatty acid-free bovine serum albumin (BSA) in PBS at 37 °C. As primary antibody, anti-CXCR2 mouse IgG (R&D Systems, catalog # 48311, 1:100 in blocking solution) was added, and the cells were incubated for 1 h at 37 °C. After three washes with PBS, goat anti-mouse IgG (H+L) conjugated to FITC (Sigma-Aldrich, catalog # AP124F, 1:500 in blocking solution) was added for 1 h at 37 °C. The cells were again washed three times with PBS and counterstained with 4′,6-diamidin-2-phenylindole (DAPI) solution (0.1 μg/mL) for 15 min in the dark at room temperature, followed by three washes with PBS. […] Afterward, the fluorescent CXCR2 ligand ((9a) final concentration 500 nM) was added for 30 min at 37 °C and the cells were imaged. Microscopy was carried out on an AxioObserver.Z1 microscope (Carl Zeiss, Jena, Germany) equipped with an ApoTome imaging system and a Heating unit XL S using a Plan-Apochromat ×63/1.40 Oil objective (filter set 43 (red), 38 (green), 49 (blue)). Image processing and line scan analysis were performed with Zen blue Imaging software. The fluorescence intensity values were normalized to vehicle control.

[6] abbreviates: competition with 9a (50 nM), CXCR2_Nluc membranes, read-out: Ki.
The mark [7] stands for this setting: Ki of nonfluorescent ligands, cell-free, read-out: cell-free Kd or Ki for CXCR2.
Setting [8] is: competition with 9a (50 nM), CXCR2_Nluc membranes, read-out: pKi (converted).
The mark [9] stands for this setting: membranes from HEK293T cells transiently expressing CXCR2_Nluc, read-out: Kd (equilibrium saturation binding).

Where “and” joins values, the source holds several entries; their conditions need not be identical. Identical values can stand only once. Like-named read-outs stand apart in the source and are kept apart here.

Take `O=C(Nc1ccc(Cl)c(S(=O)(=O)N2CCNCC2)c1O)Nc1cccc(F)c1Cl` [compound 6, elubrixin]: the IC50 in assay [1] (reported value ref 17) is 22 nM.

In the case of `CC(C)(C)c1ccc(S(=O)(=O)Nc2ccc(Cl)cc2-c2cncnc2N)cc1` [compound 24], in assay [2] (setting [6]), the Ki is at least 261 nM. Also, the “% comp. @ 70 μM” value in assay [2] (CXCR2_Nluc membranes) was 28%.

Consider `CC(C)(C)c1ccc(S(=O)(=O)Nc2ccc(Cl)cc2C(=O)c2cc[n+]([O-])cc2)cc1` [compound 23, vercirnon], for which, in assay [2] (Ki of nonfluorescent ligands, cell-free), the “cell-free Kd or Ki for CXCR2 [nM]” value is “n.i”. For the same compound, the Ki in assay [2] (setting [6]) is at least 261 nM. Also, the “% comp. @ 70 μM” value in assay [2] (CXCR2_Nluc membranes) was -3%.

Consider `CC(=O)C1=C(O)C(=O)N(c2ccc(Br)cc2F)C1C1CCCCC1` (stereo not drawn) [compound 20], for which the Ki was 2700 nM in assay [2] (setting [7]), at least 261 nM in assay [2] (setting [6]) and 2630 nM in assay [2] (setting [8]).

Take `CC[C@@H](Nc1c(Nc2ccnc(C(=O)N(C)C)c2O)c(=O)c1=O)c1cc(C(C)C)co1` [compound 1]: the half-inhibitory concentration (IC50) in assay [1] (reported value ref 4) was 0.62 nM.

`O=C(O)c1ccccc1Oc1ccc(Cl)cc1NS(=O)(=O)c1ccc(Cl)c(Cl)c1` [compound 21]: the Ki in assay [2] (setting [7]) was 4900 nM; in assay [2] (setting [6]), at least 261 nM; in assay [2] (setting [8]) it was 4680 nM.

With `Cc1ccc([C@H](Nc2c(Nc3cccc(C(=O)NCc4cn(CCCNC(=O)c5ccc(-c6c7ccc(=[N+](C)C)cc-7oc7cc(N(C)C)ccc67)c(C(=O)[O-])c5)nn4)c3O)c(=O)c2=O)C(C)(C)C)o1` [9c, (R)-5-((3-(4-((3-((2-((2,2-Dimethyl-1-(5-methylfuran-2-yl)propyl)amino)-3,4-dioxocyclobut-1-en-1-yl)amino)-2-hydroxybenzamido)methyl)-1H-1,2,3-triazol-1-yl)propyl)carbamoyl)-2-(6-(dimethylamino)-3-(dimethyliminio)-3H-xanthen-9-yl)benzoate], the Kd in assay [3] is 49.3 ± 0.7 nM; in assay [4] (Kd of fluorescent ligands, read-out: cell-free Kd or Ki for CXCR2) it was 2 nM; in assay [4] (setting [9]), 2.62 ± 0.78 nM.

For the compound `Cc1ccc([C@H](NC2=NS(=O)(=O)N=C2Nc2ccc(C)c(C(=O)N(C)C)c2O)C(C)(C)C)o1` [compound 22], the Ki in assay [2] (setting [7]) is 261 nM; in assay [2] (setting [6]), ≥ 261 nM and 300 nM; in assay [2] (setting [8]), 251 nM.

As for `CC[C@@H](Nc1c(Nc2cccc(C(=O)N(C)C)c2O)c(=O)c1=O)c1ccc(C)o1` [compound 2, navarixin], in assay [5] (fixed HEK293 cells stably expressing CXCR2, competitor 10 μM), the “effect of preincubation on membrane-associated 9a fluorescence” value was “virtually blunted all membrane-associated probe fluorescence”. In addition, the “effect of preincubation on membrane-based 9a fluorescence” value in assay [5] (live cell imaging, HEK293 cells stably expressing CXCR2, competitor 10 μM) is “very strong reduction in membrane-based fluorescence”.

Take `Cc1ccc([C@H](Nc2c(Nc3cccc(C(=O)NCc4cn(CCOCCOCCNC(=O)c5ccc(C(=O)[O-])c(-c6c7ccc(=[N+](C)C)cc-7oc7cc(N(C)C)ccc67)c5)nn4)c3O)c(=O)c2=O)C(C)(C)C)o1` [9b, (R)-4-((2-(2-(2-(4-((3-((2-((2,2-Dimethyl-1-(5-methylfuran-2-yl)propyl)amino)-3,4-dioxocyclobut-1-en-1-yl)amino)-2-hydroxybenzamido)methyl)-1H-1,2,3-triazol-1-yl)ethoxy)ethoxy)ethyl)carbamoyl)-2-(6-(dimethylamino)-3-(dimethyliminio)-3H-xanthen-9-yl)benzoate]: the Kd in assay [3] turned out to be 122 ± 5.6 nM; in assay [4] (setting [9]) it was 4.62 ± 0.87 nM.

As to `COCCn1cc(CNC(=O)c2cccc(Nc3c(N[C@@H](c4ccc(C)o4)C(C)(C)C)c(=O)c3=O)c2O)nn1` [compound 8, (R)-3-((2-((2,2-Dimethyl-1-(5-methylfuran-2-yl)propyl)amino)-3,4-dioxocyclobut-1-en-1-yl)amino)-2-hydroxy-N-((1-(2-methoxyethyl)-1H-1,2,3-triazol-4-yl)methyl)benzamide], in assay [2] (setting [8]), the Ki was 0.427 nM.

Values taken from publication PMC10388362, “Fluorescent Ligands Enable Target Engagement Studies for the Intracellular Allosteric Binding Site of the Chemokine Receptor CXCR2” (Journal of Medicinal Chemistry, 2023).
